Patent publication US20170128412A1, “SYSTEM AND METHOD FOR IMPROVED BLOOD CIRCULATION AND MAINTAINING MITOCHONDRIAL ENERGY PRODUCTION” (priority 2015, published 2017)

Key:
[1] = Linoleate peroxidative reaction inhibition (AAPH, linoleate micellar solution); assay type: biochemical; details: for inhibition rate for linoleate hydroperoxide generation: as stated in the description ("Studies indicate"); for Inhibition rate (%): specimen 25 μM
Description: Chart 4 indicates the linoleate peroxidative reaction inhibition action of tocotrienol, a-tocopherol, and Coenzyme Q10. The linoleate micellar solution comprised 300mM linoleate, 5 mM 2,2′-Azobis(2-amidinopropane) dihydrochloride (AAPH), and a specimen (tocotrienol, α-tocopherol, or Coenzyme Q10) dissolved in 0.3% Lubrol Px—20 mM sodium phosphate buffer (pH 7.4). The reaction composition reacted at room temperature for one hour, and then 0.5 ml of methanol was added to the composition, and then 2.0 ml of 70% methanol was added to the composition. The absorbance measurement was conducted at 234 nm.

[2] = DPPH radical removal ability; assay type: biochemical; details: for IC50: DPPH radical removal
Description: Chart 3 indicates the diphenylpicrylhydrazl (DPPH) radical removal ability of torolox, tocotrienol, α-tocopherol, and coenzyme Q10. The reaction composition was carried out in a DPPH solution comprising 8 mg DPPH per 100 ml of 50% ethanol. The total reaction composition comprised 0.2 ml of the specimen (torolox, tocotrienol, α-tocopherol, or coenzyme Q10) and 1.8 ml of the aforementioned DPPH solution. The total reaction composition reacted at room temperature in a dark place for 30 minutes. The absorbance measurement was carried out at 517 nm.

Row | IC50 [2] | Compound | Linoleate peroxidation inhibition, result in words [1] | inhibition rate for linoleate hydroperoxide generation [1] | DPPH inhibition, result in words [2] | Inhibition rate (%) ([2]; specimen 25 μM) | Inhibition rate (%) ([2]; specimen 50 μM) | Inhibition rate (%) ([2]; specimen 100 μM) | Inhibition rate (%) [1]
1 | – | COC1=C(OC)C(=O)C(C/C=C(\C)CC/C=C(\C)CC/C=C(\C)CC/C=C(\C)CC/C=C(\C)CC/C=C(\C)CC/C=C(\C)CC/C=C(\C)CC/C=C(\C)CCC=C(C)C)=C(C)C1=O [Coenzyme Q10, coenzyme Q10] | did not exhibit inhibition action | no such inhibition | did not exhibit inhibition action | <0% | <0% | <0% | –
2 | 43.8 µM | Cc1c(C)c2c(c(C)c1O)CCC(C)(C(=O)O)O2 (centres unmarked) [Torolox, torolox] | – | – | – | 19.1% | 48.2% | 94.9% | –
3 | 51.1 µM | Cc1c(C)c2c(c(C)c1O)CC[C@@](C)(CCC[C@H](C)CCC[C@H](C)CCCC(C)C)O2 [α-Tocopherol, α-tocopherol] | – | – | – | 15.2% | 41% | 87.6% | 42.2%
4 | 55 µM | tocotrienol | inhibition at the same level as a-tocopherol | about 40% | approximately the same level as a-tocopherol | 16.3% | 41% | 79.8% | 42.2%
